Measurements reported in US10670605B2, “Cysteine reactive probes and uses thereof” (The Scripps Research Institute, priority 2015, dated 2020).

Columns and labels:
Experiment in all cases: Competitive isoTOP-ABPP in situ (fragment-treated cells)
Format in all cases: cell-based
[1] = molecular target: T1, cysteines in MDA-MB-231 and Ramos cells (Homo sapiens, UniProt Q9Y679); conditions: 200 μM, insitu, 231
T1 sequence (Q9Y679 1-410): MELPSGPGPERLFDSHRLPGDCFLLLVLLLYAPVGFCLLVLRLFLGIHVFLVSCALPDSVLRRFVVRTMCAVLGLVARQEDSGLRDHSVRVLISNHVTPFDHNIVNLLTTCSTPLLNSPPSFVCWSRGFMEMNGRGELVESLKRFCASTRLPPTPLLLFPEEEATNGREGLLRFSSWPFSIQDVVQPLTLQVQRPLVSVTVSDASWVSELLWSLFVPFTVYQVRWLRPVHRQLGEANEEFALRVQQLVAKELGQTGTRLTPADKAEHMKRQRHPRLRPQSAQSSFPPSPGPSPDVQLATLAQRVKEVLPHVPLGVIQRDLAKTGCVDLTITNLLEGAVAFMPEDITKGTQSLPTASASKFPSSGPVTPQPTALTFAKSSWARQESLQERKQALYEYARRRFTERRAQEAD

[2] = molecular target: T2, cysteines in MDA-MB-231 and Ramos cells (Homo sapiens, UniProt Q9NRW3); conditions: 200 μM, insitu
T2 sequence (Q9NRW3 1-190): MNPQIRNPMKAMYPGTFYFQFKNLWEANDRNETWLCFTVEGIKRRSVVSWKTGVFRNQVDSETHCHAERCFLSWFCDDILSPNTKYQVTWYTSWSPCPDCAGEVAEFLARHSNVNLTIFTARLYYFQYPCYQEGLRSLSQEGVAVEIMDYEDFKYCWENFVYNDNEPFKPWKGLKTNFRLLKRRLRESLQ

[3] = molecular target: T3, cysteines in MDA-MB-231 and Ramos cells (Homo sapiens, UniProt Q8WVV9); conditions: 200 μM, insitu, 231
T3 sequence (Q8WVV9 1-542): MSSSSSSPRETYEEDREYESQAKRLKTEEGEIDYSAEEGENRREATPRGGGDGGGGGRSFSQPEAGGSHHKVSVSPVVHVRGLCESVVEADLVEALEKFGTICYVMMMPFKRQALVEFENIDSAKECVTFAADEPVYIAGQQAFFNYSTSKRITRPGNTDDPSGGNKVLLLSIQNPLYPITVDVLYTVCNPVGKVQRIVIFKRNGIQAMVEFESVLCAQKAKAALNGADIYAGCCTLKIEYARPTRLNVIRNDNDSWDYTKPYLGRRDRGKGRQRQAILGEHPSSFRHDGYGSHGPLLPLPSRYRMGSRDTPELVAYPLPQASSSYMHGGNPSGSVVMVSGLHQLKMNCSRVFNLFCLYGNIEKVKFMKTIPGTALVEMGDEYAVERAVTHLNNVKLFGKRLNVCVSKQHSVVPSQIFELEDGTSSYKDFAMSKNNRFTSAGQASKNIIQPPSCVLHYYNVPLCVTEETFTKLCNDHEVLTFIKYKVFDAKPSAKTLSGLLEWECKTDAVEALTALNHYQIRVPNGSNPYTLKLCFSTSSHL

[4] = molecular target: T4, cysteines in MDA-MB-231 and Ramos cells (Homo sapiens, UniProt Q9NX18); conditions: 200 μM, insitu
T4 sequence (Q9NX18 30-166): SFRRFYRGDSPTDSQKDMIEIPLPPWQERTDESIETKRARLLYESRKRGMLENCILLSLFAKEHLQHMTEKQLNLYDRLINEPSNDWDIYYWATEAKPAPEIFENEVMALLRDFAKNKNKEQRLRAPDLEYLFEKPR

[5] = molecular target: cysteines in MDA-MB-231 and Ramos cells (Homo sapiens, UniProt O75362); conditions: 200 μM, insitu
Chain of cysteines in MDA-MB-231 and Ramos cells (Homo sapiens, UniProt O75362) (O75362 whole entry): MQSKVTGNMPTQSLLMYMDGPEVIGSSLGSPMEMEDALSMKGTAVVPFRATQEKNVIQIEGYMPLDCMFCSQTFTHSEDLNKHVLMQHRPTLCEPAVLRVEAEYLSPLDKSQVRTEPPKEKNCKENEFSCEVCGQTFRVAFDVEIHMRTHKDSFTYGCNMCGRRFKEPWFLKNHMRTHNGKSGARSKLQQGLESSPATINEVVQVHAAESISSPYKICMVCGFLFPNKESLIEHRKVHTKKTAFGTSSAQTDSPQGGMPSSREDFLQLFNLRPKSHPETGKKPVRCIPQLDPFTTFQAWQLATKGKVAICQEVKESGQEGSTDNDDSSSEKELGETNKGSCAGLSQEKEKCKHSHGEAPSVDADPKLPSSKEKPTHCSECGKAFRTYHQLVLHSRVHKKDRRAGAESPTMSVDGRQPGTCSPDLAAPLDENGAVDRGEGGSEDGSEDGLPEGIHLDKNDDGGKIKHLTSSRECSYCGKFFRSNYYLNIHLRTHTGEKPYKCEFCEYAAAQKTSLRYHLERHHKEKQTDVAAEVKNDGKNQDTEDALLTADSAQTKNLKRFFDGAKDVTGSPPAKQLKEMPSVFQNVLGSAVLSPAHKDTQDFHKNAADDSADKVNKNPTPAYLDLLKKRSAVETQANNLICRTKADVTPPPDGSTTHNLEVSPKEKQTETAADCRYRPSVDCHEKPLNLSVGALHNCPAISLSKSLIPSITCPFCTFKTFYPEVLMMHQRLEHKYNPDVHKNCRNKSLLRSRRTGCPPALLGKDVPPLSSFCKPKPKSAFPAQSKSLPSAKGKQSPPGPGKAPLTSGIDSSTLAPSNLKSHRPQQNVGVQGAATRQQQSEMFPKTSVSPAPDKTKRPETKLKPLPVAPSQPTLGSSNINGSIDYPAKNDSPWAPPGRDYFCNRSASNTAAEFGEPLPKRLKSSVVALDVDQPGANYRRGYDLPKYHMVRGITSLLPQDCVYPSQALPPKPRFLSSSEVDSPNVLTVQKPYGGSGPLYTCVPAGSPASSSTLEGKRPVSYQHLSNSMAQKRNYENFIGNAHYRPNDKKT

[6] = molecular target: cysteines in MDA-MB-231 and Ramos cells (Homo sapiens, UniProt P27708); conditions: 200 μM, insitu
Chain of cysteines in MDA-MB-231 and Ramos cells (Homo sapiens, UniProt P27708) (P27708 whole entry): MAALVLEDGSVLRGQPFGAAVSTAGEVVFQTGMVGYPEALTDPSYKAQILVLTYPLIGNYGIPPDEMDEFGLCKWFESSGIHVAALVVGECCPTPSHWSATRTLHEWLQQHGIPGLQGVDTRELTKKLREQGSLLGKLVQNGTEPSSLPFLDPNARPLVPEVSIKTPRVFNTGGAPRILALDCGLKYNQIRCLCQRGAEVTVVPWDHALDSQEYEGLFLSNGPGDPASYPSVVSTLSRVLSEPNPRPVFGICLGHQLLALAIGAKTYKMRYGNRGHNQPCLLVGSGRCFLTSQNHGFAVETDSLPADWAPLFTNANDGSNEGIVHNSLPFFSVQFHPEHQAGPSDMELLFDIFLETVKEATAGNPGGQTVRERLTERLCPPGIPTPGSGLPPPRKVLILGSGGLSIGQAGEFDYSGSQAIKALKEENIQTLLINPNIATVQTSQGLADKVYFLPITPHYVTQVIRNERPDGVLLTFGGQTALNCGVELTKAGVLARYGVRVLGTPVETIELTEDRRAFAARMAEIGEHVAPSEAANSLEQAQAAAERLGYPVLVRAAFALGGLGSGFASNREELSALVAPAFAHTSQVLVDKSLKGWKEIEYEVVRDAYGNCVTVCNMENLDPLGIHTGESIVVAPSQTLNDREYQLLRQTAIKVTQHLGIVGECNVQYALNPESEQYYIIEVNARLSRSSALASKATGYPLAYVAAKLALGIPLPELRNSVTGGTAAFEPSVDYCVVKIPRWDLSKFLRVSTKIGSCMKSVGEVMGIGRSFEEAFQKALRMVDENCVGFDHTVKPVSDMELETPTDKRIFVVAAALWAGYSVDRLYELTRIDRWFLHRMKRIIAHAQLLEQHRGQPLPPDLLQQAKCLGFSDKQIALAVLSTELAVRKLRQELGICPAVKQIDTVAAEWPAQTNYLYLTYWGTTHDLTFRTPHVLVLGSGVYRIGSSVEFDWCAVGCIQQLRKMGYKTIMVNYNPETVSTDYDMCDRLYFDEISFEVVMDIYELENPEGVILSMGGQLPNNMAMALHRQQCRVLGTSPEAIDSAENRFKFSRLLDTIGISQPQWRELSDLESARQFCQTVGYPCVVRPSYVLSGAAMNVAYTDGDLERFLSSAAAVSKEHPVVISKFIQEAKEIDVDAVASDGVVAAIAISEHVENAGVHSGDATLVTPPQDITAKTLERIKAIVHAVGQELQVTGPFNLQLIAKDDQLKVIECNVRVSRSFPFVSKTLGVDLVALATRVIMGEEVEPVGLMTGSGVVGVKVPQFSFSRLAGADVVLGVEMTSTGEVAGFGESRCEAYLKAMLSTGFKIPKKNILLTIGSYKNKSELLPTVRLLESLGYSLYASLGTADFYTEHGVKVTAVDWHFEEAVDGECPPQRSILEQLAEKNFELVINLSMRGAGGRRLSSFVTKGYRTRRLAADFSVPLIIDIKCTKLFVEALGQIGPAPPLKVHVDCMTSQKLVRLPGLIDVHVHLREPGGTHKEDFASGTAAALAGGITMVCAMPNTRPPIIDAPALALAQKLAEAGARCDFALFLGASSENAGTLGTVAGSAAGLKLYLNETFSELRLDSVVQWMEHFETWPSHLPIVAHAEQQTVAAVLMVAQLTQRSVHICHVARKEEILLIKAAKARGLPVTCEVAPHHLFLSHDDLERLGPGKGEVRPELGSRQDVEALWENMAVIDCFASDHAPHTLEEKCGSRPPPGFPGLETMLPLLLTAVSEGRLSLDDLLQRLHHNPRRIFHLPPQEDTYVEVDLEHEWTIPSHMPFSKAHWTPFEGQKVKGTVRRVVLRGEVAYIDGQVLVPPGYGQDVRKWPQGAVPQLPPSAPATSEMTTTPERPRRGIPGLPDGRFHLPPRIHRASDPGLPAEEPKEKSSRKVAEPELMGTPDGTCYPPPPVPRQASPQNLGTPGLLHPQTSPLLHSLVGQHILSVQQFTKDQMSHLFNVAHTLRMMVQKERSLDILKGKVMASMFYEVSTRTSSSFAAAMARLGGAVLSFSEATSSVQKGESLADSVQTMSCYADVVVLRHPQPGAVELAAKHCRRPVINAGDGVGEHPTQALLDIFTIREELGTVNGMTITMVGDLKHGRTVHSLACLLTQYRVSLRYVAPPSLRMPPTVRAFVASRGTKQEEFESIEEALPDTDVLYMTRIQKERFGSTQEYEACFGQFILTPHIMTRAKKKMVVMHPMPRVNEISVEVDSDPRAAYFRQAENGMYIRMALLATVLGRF

[7] = molecular target: cysteines in MDA-MB-231 and Ramos cells (Homo sapiens, UniProt P07858); conditions: 200 μM, insitu, 231
[8] = molecular target: cysteines in MDA-MB-231 and Ramos cells (Homo sapiens, UniProt Q6XZF7); conditions: 200 μM, insitu, 231
[9] = molecular target: T5, cysteines in MDA-MB-231 and Ramos cells (Homo sapiens, UniProt Q8WV74); conditions: 200 μM, insitu, 231
T5 sequence (Q8WV74 1-236): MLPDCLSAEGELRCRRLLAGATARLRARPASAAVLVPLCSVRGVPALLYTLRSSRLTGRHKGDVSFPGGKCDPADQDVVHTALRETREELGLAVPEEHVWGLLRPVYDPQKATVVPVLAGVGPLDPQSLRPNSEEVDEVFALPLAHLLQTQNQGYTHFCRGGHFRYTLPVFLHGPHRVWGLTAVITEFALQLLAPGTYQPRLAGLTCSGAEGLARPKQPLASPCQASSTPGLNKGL

[10] = molecular target: cysteines in MDA-MB-231 and Ramos cells (Homo sapiens, UniProt P04818); conditions: 200 μM, insitu
Chain of cysteines in MDA-MB-231 and Ramos cells (Homo sapiens, UniProt P04818) (P04818 whole entry): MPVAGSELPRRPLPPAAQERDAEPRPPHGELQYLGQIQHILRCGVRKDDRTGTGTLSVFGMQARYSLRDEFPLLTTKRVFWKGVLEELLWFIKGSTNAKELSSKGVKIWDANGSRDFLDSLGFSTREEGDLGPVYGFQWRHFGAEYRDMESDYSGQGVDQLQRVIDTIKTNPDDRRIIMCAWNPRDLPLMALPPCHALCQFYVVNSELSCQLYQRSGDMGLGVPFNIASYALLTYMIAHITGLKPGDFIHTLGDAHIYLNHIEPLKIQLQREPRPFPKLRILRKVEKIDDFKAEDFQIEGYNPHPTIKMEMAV

[11] = molecular target: T6, cysteines in MDA-MB-231 and Ramos cells (Homo sapiens, UniProt Q96C19); conditions: 200 μM, insitu
T6 sequence (Q96C19 1-240): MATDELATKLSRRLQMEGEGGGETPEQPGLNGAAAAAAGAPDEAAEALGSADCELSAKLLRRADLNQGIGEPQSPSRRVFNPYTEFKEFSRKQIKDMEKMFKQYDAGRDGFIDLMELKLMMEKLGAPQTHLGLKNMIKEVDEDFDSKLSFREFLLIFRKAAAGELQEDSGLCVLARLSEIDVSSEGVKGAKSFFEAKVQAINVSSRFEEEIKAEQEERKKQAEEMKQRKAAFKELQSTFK

| SMILES | isoTOP-ABPP ratio Q9NX18_C83 [4]; 231 | isoTOP-ABPP ratio O75362_C286 [5]; 231 | isoTOP-ABPP ratio P07858_C211 [7] | isoTOP-ABPP ratio Q9Y679_C391 [1] | isoTOP-ABPP ratio Q9NRW3_C130 [2]; 231 | isoTOP-ABPP ratio Q8WV74_C207 [9] | isoTOP-ABPP ratio P04818_C199 [10]; 231 | isoTOP-ABPP ratio Q96C19_C172 [11]; 231 | isoTOP-ABPP ratio Q8WVV9_C464 [3] | also measured |
| --- | --- | --- | --- | --- | --- | --- | --- | --- | --- | --- |
| O=C(CCl)NC12CC3CC(CC(C3)C1)C2 [compound 21] | 1.3 | 1.1 | 2.6 | – | – | – | – | – | – | isoTOP-ABPP ratio, cysteine Q9Y679_C391 [1]: 1.5; isoTOP-ABPP ratio, cysteine Q9NRW3_C130 [2]; 231: 1.3; isoTOP-ABPP ratio, cysteine Q8WVV9_C464 [3]: 1.4; isoTOP-ABPP ratio, cysteine P27708_C73 [6]; 231: 0.6; isoTOP-ABPP ratio, cysteine Q6XZF7_C691 [8]: 0.8 |
| CC(C)CCOCCNC(=O)CCl [compound 27] | 1.5 | 1.0 | 0.8 | 1.2 | 1.3 | 2.2 | 0.5 | – | – | isoTOP-ABPP ratio P27708_C73 [6]; 231: 0.5 |
| COc1ccccc1OCCNC(=O)CCl [compound 28] | – | 0.9 | – | – | – | – | – | – | – | – |
| O=C(CCl)N1CCN(CC(=O)N2CCOCC2)CC1 [compound 29] | – | – | – | – | – | – | – | – | – | isoTOP-ABPP ratio Q9NRW3_C130 ([2]; ramos): 13.3; isoTOP-ABPP ratio Q9NX18_C83 ([4]; ramos): 1.9; isoTOP-ABPP ratio O75362_C286 ([5]; ramos): 1.0; isoTOP-ABPP ratio P04818_C199 ([10]; ramos): 2.5; isoTOP-ABPP ratio P27708_C73 ([6]; ramos): 1.8; isoTOP-ABPP ratio Q96C19_C172 ([11]; ramos): 1.2 |
| C=CC(=O)N(Cc1cccnc1)c1cc(C(F)(F)F)cc(C(F)(F)F)c1 [compound 31] | – | – | – | – | – | – | – | 1.6 | – | isoTOP-ABPP ratio Q6XZF7_C691 [8]: 2.3 |
| C=CC(=O)Nc1cc(F)c(N2CCN(C(=O)OC(C)(C)C)CC2)c(F)c1 [compound 38] | – | – | 1.8 | – | – | – | 20.0 | 0.7 | 1.5 | – |
| Cc1ccc(C=C(C#N)C(=O)NCCN2CCOCC2)cc1 [compound 41] | – | 1.0 | 0.4 | – | 0.9 | 0.9 | 0.7 | 0.5 | – | isoTOP-ABPP ratio P27708_C73 [6]; 231: 0.7 |
| CC1CCc2ccccc2N1C(=O)CCl (stereo not shown) [compound 45] | 3.7 | 20.0 | 2.4 | 20.0 | 20.0 | 20.0 | 20.0 | – | 20.0 | – |
| O=C(CCl)Nc1cccc2ncccc12 [compound 51] | 1.0 | – | – | 20.0 | – | – | 20.0 | 1.2 | 3.2 | – |
